The target of this assay is T1, full-length human BTK (Homo sapiens, UniProt Q06187).
T1 construct: full-length human BTK (08-080) from CarnaBio USA, Inc; purchased CarnaBio USA, Inc., Natick, Mass; 08-080
T1 sequence (Q06187 whole entry): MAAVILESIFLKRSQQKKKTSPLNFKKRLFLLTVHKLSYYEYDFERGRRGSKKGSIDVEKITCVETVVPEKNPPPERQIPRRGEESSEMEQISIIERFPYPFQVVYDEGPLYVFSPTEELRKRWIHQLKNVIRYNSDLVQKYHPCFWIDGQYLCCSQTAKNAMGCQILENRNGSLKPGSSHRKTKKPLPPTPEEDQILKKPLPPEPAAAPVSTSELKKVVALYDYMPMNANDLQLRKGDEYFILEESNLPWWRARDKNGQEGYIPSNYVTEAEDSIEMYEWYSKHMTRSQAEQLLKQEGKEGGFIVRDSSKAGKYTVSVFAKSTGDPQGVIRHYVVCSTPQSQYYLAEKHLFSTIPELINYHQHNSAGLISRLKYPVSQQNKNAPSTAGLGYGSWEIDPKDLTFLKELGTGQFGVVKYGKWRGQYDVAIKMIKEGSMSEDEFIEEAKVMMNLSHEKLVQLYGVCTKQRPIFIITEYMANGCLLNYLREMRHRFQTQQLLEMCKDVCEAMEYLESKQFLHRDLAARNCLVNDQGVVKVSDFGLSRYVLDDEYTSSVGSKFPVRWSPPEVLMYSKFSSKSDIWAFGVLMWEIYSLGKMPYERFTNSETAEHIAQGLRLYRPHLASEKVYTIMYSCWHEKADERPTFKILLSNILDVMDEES
As to the kind of experiment: Assay A: microfluidic off-chip mobility shift assay for potency against BTK enzyme. It is filed as biochemical. Particulars: 90 min at 27° C. The source says: Assay A: Microfluidic Off-Chip Mobility Shift Assay Protocol for Potency Assessment Against BTK Enzyme
The protocol below describes microfluidic, off-chip mobility shift kinase assay to measure inherent potency of compounds against BTK enzyme. The mechanics of the assay platform are best described by the vendor (Caliper Life Sciences, a PerkinElmer Company, Hopkinton, Mass.) on their website at the following URL:
Briefly, 2.5× stocks of full-length human BTK (08-080) from CarnaBio USA, Inc., Natick, Mass., 1.6×ATP and appropriate kinKDR peptide substrate (FITC-AHA-EEPLYWSFPAKKK-NH2; developed in-house) were prepared in kinase reaction buffer consisting of 25 mM MgCl2, 0.015% Brij-35 (30%), 100 mM Hepes, pH 7.5, and 10 mM DTT.
5 uL of enzyme buffer and 7.5 uL of ATP/kinKDR peptide substrate mix were added to Matrix (#115304) 384-well, sterile, polypropylene plates (Thermo Fisher Scientific, Hudson, N.H.) with 125 nL of serially diluted compounds prepared in 100% DMSO, and incubated for 90 min. at 27° C. following the incubation period, reactions were stopped by adding 60 uL stop buffer consisting of 100 mM Hepes, pH 7.5, 0.015% Brij-35 (30%), 0.277% Coating Reagent #3 (Caliper Life Sciences, Mountain View, Calif.), 5% DMSO. Stopped reactions were monitored at −2 PSI, −3000 V/−700 V in a LabChip 3000 plate reader from Caliper Life Sciences, a PerkinElmer Company (Hopkinton, Mass.), and the activity was measured by off-chip mobility shift assay measuring the charge/mass difference between substrate and product resulting from peptide phosphorilation. IC50 and efficacy were determined by plotting log [Inhibitor] vs. % Activity in GeneData Screener (Basel, Switzerland).
In general, IC50 refers to the concentration that gives 50% inhibition. Regarding `COCCOc1ccc(Nc2ncc(F)c(N3CCCC(CNC(=O)c4ccc(C(C)(C)C)cc4)C3)n2)cc1` (racemic) [Compound 7, 4-(tert-butyl)-N-((1-(5-fluoro-2-((4-(2-methoxyethoxy)phenyl)amino)pyrimidin-4-yl)piperidin-3-yl)methyl)benzamide], the IC50 is more than 5 µM.
For `COCCOc1ccc(Nc2ncc(F)c(NCC3CCN(C(=O)c4ccc(C(C)(C)C)cc4)C3)n2)cc1` (racemic) [Compound 8, (4-(tert-butyl)phenyl)(3-(((5-fluoro-2-((4-(2-methoxyethoxy)phenyl)amino)pyrimidin-4-yl)amino)methyl)pyrrolidin-1-yl)methanone] the value was more than 5 µM; for `COCCOc1ccc(Nc2ncc(F)c(N3CCC(CNC(=O)c4ccc(C(C)(C)C)cc4)C3)n2)cc1` (racemic) [Compound 17, 4-(tert-butyl)-N-((1-(5-fluoro-2-((4-(2-methoxyethoxy)phenyl)amino)pyrimidin-4-yl)pyrrolidin-3-yl)methyl)benzamide], more than 5 µM.
The figure for `COCCOc1ccc(Nc2ncc(F)c(N3CCC[C@@H](NC(=O)c4ccc(C(C)(C)C)cc4)C3)n2)cc1` [Compound 1, (R)0-4-(tert-butyl)-N-(1-(5-fluoro-2-((4-(2-methoxyethoxy)phenyl)amino)pyrimidin-4-yl)piperidin-3-yl)benzamide] is more than 5 µM; for `COCCOc1ccc(Nc2ncc(F)c(N3CC[C@H](NC(=O)c4ccc(C(C)(C)C)cc4)C3)n2)cc1` [Compound 9, (S)-4-(tert-butyl)-N-(1-(5-fluoro-2-((4-(2-methoxyethoxy)phenyl)amino)pyrimidin-4-yl)pyrrolidin-3-yl)benzamide] it is more than 5 µM; for `COCCOc1ccc(Nc2ncc(F)c(NC3CCCC(NC(=O)Cc4ccc(C(C)(C)C)cc4)C3)n2)cc1` (centres unmarked) [Compound 13, 2-(4-tert-Butyl-phenyl)-N-(3-{5-fluoro-2-[4-(2-methoxy-ethoxy)-phenylamino]-pyrimidin-4-ylamino}-cyclohexyl)-acetamide] it is more than 5 µM.
For `COCCOc1ccc(Nc2ncc(F)c(NC3CCCC(NC(=O)c4coc(-c5ccccc5)n4)C3)n2)cc1` (centres unmarked) [Compound 14, 2-Phenyl-oxazole-4-carboxylic acid (3-{5-fluoro-2-[4-(2-methoxy-ethoxy)-phenylamino]-pyrimidin-4-ylamino}-cyclohexyl)-amide], the IC50 is more than 5 µM.
The figure for `COCCOc1ccc(Nc2ncc(F)c(N3CCCC4(CCN(C(=O)c5ccc(C(C)(C)C)cc5)C4)C3)n2)cc1` (centres unmarked) [Compound 15, (4-(tert-butyl)phenyl)(7-(5-fluoro-2-((4-(2-methoxyethoxy)phenyl)amino)pyrimidin-4-yl)-2,7-diazaspiro[4.5]decan-2-yl)methanone] is more than 5 µM.
For `COCCOc1ccc(Nc2ncc(F)c(N3CC4CN(C(=O)c5ccc(C(C)(C)C)cc5)CC4C3)n2)cc1` (centres unmarked) [Compound 18, (4-(tert-butyl)phenyl)(5-(5-fluoro-2-((4-(2-methoxyethoxy)phenyl)amino)pyrimidin-4-yl)hexahydropyrrolo[3,4-c]pyrrol-2(1H)-yl)methanone] the value was more than 5 µM; for `COCCOc1ccc(Nc2ncc(F)c(N3CCC4CN(C(=O)c5ccc(C(C)(C)C)cc5)CC43)n2)cc1` (centres unmarked) [Compound 20, (4-(tert-butyl)phenyl)(1-(5-fluoro-2-((4-(2-methoxyethoxy)phenyl)amino)pyrimidin-4-yl)hexahydropyrrolo[3,4-b]pyrrol-5(1H)-yl)methanone], more than 5 µM.
The figure for `COCCOc1ccc(Nc2ncc(F)c(N3CCCC4(CCCN(C(=O)c5ccc(C(C)(C)C)cc5)C4)C3)n2)cc1` (centres unmarked) [Compound 21, (4-(tert-butyl)phenyl)(8-(5-fluoro-2-((4-(2-methoxyethoxy)phenyl)amino)pyrimidin-4-yl)-2,8-diazaspiro[5.5]undecan-2-yl)methanone] is more than 5 µM.

The values are drawn from US10045985B2, “Heteroaryl compounds as BTK inhibitors and uses thereof” (Merck Patent GmbH, priority 2015, dated 2018).
